One assay concerns the target human recombinant HDAC2 (Homo sapiens, UniProt Q92769). Nature of the assay: In-vitro human HDAC2 fluorogenic inhibition assay (ZMAL substrate). The class given is biochemical.
In assay [1] the test system is human primary glioblastoma cell line U251. Briefly: MTT cell viability assay, U251. The class given is cell-based. Particulars: Homo sapiens, read-out: Antiproliferative Effect IC50 U251. (Formazan colour is commonly taken as a measure of viable cells.)
Assay [2] concerns the target T1, HDAC6 (Homo sapiens, UniProt Q9UBN7).
T1 sequence (Q9UBN7 1-1215): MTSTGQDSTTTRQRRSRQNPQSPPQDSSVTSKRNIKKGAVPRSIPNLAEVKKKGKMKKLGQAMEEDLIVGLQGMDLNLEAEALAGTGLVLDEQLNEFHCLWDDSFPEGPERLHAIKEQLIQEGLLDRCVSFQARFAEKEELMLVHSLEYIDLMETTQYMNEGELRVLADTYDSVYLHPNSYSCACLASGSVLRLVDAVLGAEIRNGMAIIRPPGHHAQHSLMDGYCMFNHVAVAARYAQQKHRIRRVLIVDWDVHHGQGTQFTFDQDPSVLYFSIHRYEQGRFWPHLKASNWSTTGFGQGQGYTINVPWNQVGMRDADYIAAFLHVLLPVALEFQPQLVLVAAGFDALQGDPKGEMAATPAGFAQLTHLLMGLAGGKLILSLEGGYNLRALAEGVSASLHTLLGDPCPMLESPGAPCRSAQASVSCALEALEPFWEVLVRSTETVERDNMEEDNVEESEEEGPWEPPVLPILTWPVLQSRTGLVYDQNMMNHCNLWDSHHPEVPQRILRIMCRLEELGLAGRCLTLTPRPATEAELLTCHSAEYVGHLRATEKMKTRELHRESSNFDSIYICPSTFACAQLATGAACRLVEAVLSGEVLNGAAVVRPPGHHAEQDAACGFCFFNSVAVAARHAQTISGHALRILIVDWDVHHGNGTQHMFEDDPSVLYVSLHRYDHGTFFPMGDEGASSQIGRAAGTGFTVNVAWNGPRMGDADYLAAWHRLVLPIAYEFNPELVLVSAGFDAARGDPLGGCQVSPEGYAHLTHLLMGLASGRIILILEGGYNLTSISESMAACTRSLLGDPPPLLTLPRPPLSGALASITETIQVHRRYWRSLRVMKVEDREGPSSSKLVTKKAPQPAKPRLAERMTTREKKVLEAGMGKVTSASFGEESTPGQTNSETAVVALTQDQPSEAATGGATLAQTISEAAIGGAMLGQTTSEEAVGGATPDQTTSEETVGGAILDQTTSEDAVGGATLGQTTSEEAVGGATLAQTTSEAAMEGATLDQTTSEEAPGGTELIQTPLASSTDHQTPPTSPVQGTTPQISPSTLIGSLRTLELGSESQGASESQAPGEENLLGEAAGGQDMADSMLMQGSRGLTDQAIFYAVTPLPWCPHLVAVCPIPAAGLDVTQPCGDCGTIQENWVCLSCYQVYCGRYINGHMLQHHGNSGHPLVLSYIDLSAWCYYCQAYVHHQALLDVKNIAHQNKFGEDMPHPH
Briefly: In-vitro human HDAC6 fluorogenic inhibition assay (ZMAL substrate). The class given is biochemical.

Assay [3] concerns human primary glioblastoma cell line U87. Nature of the assay: MTT cell viability assay, U87. The class given is cell-based. As to conditions: 72 h, read-out: Antiproliferative Effect IC50 U87.
The target of another assay is human recombinant HDAC3 (Homo sapiens, UniProt O15379). Nature of the assay: In-vitro human HDAC3 fluorogenic inhibition assay (ZMAL substrate). The class given is biochemical.
Assay [4] relates to human tongue squamous cell carcinoma cell line Cal27. Briefly: MTT cell viability assay, Cal27. The class given is cell-based. Particulars: for IC50: Homo sapiens, read-out: Antiproliferative Effect IC50 Cal27.
In assay [5] the target is T2, HDAC1 (Homo sapiens, UniProt Q13547). Briefly: In-vitro human HDAC1 fluorogenic inhibition assay (ZMAL substrate). The class given is biochemical.
In assay [6] the test system is histone H3 acetylation (marker of reduced HDAC1-3 activity). Nature of the assay: Immunoblot, acetyl histone H3 in HL60 cells. The class given is cell-based. Background: A western blot detects proteins with antibodies after separation by electrophoresis.
The target in assay [7] is T1, HDAC6. Nature of the assay: Immunoblot, HDAC6 degradation in HL60 cells. The class given is cell-based. Particulars: 0.1 μM, 1 μM and 10 μM, 48 hours.
For another assay, the target named is T3, HDAC8 recombinant enzyme (Homo sapiens, UniProt Q9BY41).
T3 sequence (Q9BY41 1-377): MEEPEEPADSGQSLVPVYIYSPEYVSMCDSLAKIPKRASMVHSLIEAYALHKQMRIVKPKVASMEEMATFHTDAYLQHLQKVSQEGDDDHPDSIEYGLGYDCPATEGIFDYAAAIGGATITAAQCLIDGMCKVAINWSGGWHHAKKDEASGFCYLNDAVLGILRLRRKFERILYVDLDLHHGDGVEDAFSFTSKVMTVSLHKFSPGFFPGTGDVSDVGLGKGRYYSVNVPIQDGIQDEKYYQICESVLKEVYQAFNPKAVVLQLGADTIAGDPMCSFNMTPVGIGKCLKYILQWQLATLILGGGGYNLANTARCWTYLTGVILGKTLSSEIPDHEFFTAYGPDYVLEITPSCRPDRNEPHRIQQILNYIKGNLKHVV
Briefly: In-vitro human HDAC8 assay (Boc-Lys-(TFa)-AMC substrate). The class given is biochemical.

Assay [8] deals with α-tubulin acetylation (marker of reduced HDAC6 activity). Nature of the assay: Immunoblot, acetylated α-tubulin in HL60 cells. The class given is cell-based.
The target in assay [9] is T2, HDAC1. Nature of the assay: Immunoblot, HDAC1 degradation in HL60 cells. The class given is cell-based. As to conditions: 0.1 μM, 1 μM and 10 μM, 48 hours.
In assay [10] the test system is γ-H2AX formation in Cal27 cells. Briefly: γ-H2AX expression DNA damage assay. The class given is cell-based, human.
The test system of another assay is Cal27 cells. The class given is cell-based, human.
Assay [11] deals with caspase 3/7 activation in Cal27 cells. The class given is cell-based, human.
The mark [12] stands for this setting: n≥2, each in duplicate wells, read-out: HDAC Inhibition IC50 HDAC 2.
Where [13] appears, read: U-251, MTT assay, 72 h, n≥3, each in triplicate wells, n.e.: no effect up to 100 μM.
Where [14] appears, read: fluorogenic assay, n≥2, each in duplicate wells, read-out: Target Inhibition IC50 HDAC6.
Setting [15] is: MTT assay, n≥3, each in triplicate wells.
Where [16] appears, read: n≥2, each in duplicate wells, read-out: HDAC Inhibition IC50 HDAC 3.
The mark [17] stands for this setting: CAL-27, MTT assay, 72 h, n≥3, each in triplicate wells.
Setting [18] is: fluorogenic assay, n≥2, each in duplicate wells, read-out: Target Inhibition IC50 HDAC1.

Molecules are shown by their SMILES. “And” between values parts separate entries of the source, which are not always exact repeats. Equal entries are not always repeated. “Also recorded” adds a separate entry of the source. Where two headings read alike, the source gives them in different places.

T2 sequence (Q13547 whole entry): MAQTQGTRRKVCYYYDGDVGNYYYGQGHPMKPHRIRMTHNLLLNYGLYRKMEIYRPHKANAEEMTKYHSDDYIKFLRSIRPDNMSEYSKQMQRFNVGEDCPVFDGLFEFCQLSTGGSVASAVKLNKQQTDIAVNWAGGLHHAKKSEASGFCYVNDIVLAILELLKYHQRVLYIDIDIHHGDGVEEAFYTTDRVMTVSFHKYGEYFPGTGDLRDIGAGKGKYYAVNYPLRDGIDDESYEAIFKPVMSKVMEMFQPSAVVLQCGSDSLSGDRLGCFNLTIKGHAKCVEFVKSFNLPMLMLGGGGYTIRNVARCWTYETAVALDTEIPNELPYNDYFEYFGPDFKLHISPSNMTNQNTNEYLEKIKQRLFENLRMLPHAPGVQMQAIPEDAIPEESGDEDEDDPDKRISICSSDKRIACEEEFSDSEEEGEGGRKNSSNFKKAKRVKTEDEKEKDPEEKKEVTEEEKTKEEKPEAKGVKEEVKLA
human recombinant HDAC2, sequence (Q92769 whole entry): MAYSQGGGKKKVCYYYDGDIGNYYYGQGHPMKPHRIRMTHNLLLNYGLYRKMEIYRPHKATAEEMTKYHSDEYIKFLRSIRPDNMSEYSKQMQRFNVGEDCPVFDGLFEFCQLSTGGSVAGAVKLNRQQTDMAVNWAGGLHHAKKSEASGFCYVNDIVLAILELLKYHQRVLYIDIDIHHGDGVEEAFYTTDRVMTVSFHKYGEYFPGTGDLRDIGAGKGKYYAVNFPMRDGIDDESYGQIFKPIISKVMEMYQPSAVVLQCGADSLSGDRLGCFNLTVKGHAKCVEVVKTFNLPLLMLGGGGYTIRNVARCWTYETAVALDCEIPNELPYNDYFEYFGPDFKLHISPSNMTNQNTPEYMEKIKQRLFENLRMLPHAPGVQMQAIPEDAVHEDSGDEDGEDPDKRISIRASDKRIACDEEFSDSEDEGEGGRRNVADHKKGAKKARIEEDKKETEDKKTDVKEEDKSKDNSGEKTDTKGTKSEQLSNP
human recombinant HDAC3, sequence (O15379 whole entry): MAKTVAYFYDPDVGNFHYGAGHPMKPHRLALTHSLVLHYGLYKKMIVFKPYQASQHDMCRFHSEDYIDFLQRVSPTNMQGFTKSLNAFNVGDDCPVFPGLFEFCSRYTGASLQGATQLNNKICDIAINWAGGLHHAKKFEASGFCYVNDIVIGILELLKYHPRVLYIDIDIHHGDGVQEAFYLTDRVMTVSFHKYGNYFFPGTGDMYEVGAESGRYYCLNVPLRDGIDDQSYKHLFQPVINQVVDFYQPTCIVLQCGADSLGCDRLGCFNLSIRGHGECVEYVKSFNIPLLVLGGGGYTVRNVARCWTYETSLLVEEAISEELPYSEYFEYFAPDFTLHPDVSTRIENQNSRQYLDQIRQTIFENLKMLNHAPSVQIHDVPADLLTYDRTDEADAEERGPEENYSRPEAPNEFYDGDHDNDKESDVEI
human recombinant HDAC3, sequence (Q9Y618 395-489 partner limits assumed): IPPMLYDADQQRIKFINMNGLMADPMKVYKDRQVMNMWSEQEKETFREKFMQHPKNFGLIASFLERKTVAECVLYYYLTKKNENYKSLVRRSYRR

As for `O=C(/C=C/c1ccc(CNC(=O)CCCc2ccccc2)cc1)NO` [Compound 3 o], the 50% inhibitory concentration (IC50) (in general, the midpoint of a concentration-inhibition curve) on human recombinant HDAC2 (setting [12]) worked out at 194 ± 34 nM; in assay [1] (setting [13]), 23900 ± 3510 nM; on HDAC6 [2] (setting [14]) it was 66 ± 1 nM; in assay [3] (setting [15]) it was 27700 ± 6520 nM; on human recombinant HDAC3 (setting [16]), 117 ± 20 nM; in [4] (setting [17]), 6590 ± 440 nM. For the same compound, at HDAC1 [5] (setting [18]), the IC50 worked out at 156 ± 8 nM.

Consider `O=C(CCCCCCNC(=O)c1ccc(NC(=O)COCCOCCNC(=O)COc2cccc3c2C(=O)N(C2CCC(=O)NC2=O)C3=O)cc1)NO` (stereo not drawn) [PROTAC 4], for which the “acetylation of histone H3” value in assay [6] is given as “significant hyperacetylation”. Moreover, the IC50 on human recombinant HDAC2 (setting [12]) came out at 248 ± 49 nM; at HDAC8 recombinant enzyme (read-out: HDAC Inhibition IC50 HDAC 8), 3420 ± 320 nM; at HDAC6 [2] (setting [14]), 27 nM; on human recombinant HDAC3 (setting [16]), 159 ± 31 nM; on HDAC1 [5] (setting [18]) it was 174 ± 9 nM. Also, the “HDAC6 degradation (Western blot)” value on HDAC6 [7] is given as “able to degrade especially HDAC6”. For the same compound, in assay [8], the “acetylation of α-tubulin” value is “significant hyperacetylation”. For the same compound, the “HDAC1 degradation (Western blot)” value at HDAC1 [9] was “also HDAC1 in a concentration dependent manner”.

As for `Cn1nnc2c(C(=O)NCc3ccc(/C=C/C(=O)NO)cc3)ncn2c1=O` [Compound 3 l], the IC50 in assay [1] (setting [13]) stood at 97800 ± 9070 nM; at HDAC6 [2] (setting [14]) it was 72 ± 8 nM; in assay [3] (setting [15]), 141000 ± 20700 nM; in assay [4] (setting [17]) it was 15400 ± 1610 nM; at HDAC1 [5] (setting [18]), 146 ± 8 nM. In addition, the γ-H2AX formation result in assay [10] (Cal27 cells, IC50 (from MTT assay), 24 h) was “not different from control”; in [10] (Cal27 cells, fivefold IC50 (from MTT assay), 24 h), “only weak DNA damage”.

Take `O=C(/C=C/c1ccc(CNC(=O)CCCc2ccc(N(CCCl)CCCl)cc2)cc1)NO` [Compound 3 n]: the IC50 at human recombinant HDAC2 turned out to be 432 ± 15 nM; in assay [1] (U-251, 72 h) it was 14500 ± 1590 nM; at HDAC8 recombinant enzyme it was 4040 ± 280 nM; against HDAC6 [2] it was 62 ± 1 nM; in assay [3], 19800 ± 3160 nM; on human recombinant HDAC3, 187 ± 9 nM. Besides, the IC50 in [4] (CAL-27, 72 h) came out at 2680 ± 310 nM; at HDAC1 [5] it was 151 ± 21 nM. For the same compound, the “induction of apoptosis (subG1 nuclei)” value with Cal27 cells was “more potent than 3 o, cisplatin, vorinostat, and CAB in inducing apoptosis”. The “caspase 3/7 activation” value in [11] is “significantly more effective than the sum of the effects of 3 o and CAB; also recorded: significantly stronger than the sum of the effects of even 100 μM CAB and 30 μM 3 o”. Moreover, in assay [11], the “combination index (CI)” value is 0,92 and 0,69 and 0,70. The “improved antiproliferative effect in comparison to parent compound CAB” value in assay [4] is “up to 10 fold”. Moreover, the γ-H2AX formation entry in assay [10] was “significant increase in γ‐H2AX formation; also recorded: significantly more active than 3 l and 3 m; also recorded: significantly more effective than the sum of the effects of 3 o and CAB; also recorded: significantly greater DNA damage (γ‐H2AX assay) than 3 o”.

The values are drawn from paper PMC7756583, “Hydroxamic Acids Immobilized on Resins (HAIRs): Synthesis of Dual‐Targeting HDAC Inhibitors and HDAC Degraders (PROTACs)” (Angewandte Chemie (International Ed. in English), 2020).
